According to patent EP0060179A1, “Pharmaceutical compositions having anorectic activity” (SANOFI S.A., priority 1981, dated 1982):
Where two headings read alike, the source gives them in different places. Marks after values point to notes of the source that are not given here.

What was measured:
[1] = Acute toxicity (DL50) in the rat; conditions: in vivo
Description: (§1) Dans le tableau I sont reportés, pour cinq composés représentatifs utiles comme ingrédients actifs dans les compositions selon l'invention: • - la toxicité aiguë, exprimée comme DL50 chez le rat par voie orale ou par voie intrapéritonéale (donnée A); • - l'activité anorexigène, exprimée comme dose orale ou intrapéritonéale inhibant de 50% la prise de nourriture (DE50, donnée B); • - le rapport entre la toxicité aiguë et l'activité anorexigène qui exprime l'index thérapeutique lié à la toxicité aiguë (donnée A/B).

[2] = test system: prise de nourriture chez le rat; test: Anorectic activity, food intake method in the rat; format: in vivo; conditions: for A/B (index thérapeutique lié à la toxicité aiguë): DL50/DE50; for ED50: 1 h, rat, 30 minutes before food, food consumed in first hour, read-out: B DE50 (dose inhibant de 50% la prise de nourriture)
Procedure: L'activité anorexigène a été évaluée par la méthode de la prise de nourriture chez le rat. On a utilisé des rats femelles de 200 g entrainés pendant 10 jours à manger durant une période de 4 heures et sélectionnés au huitième jour. Au bout du dixième jour, les animaux randomisés ont été divisés en un "groupe contrôle", traité par le seul véhicule, et en plusieurs "groupes traités". Le traitement a été effectué par voie orale et/ou intrapéritonéale 30 minutes avant la présentation de la nourriture et, ensuite, on a mesuré la quantité de nourriture consommée au cours de la première heure.
as §1

[3] = test system: taux cérébraux de sérotonine; test: Brain serotonin levels after administration (Curzon and Green method); format: in vivo
Description: En particulier, les composés utilisés comme principes actifs des compositions pharmaceutiques de la présente invention, in vivo, ne provoquent pas de déplétion de sérotonine au niveau central. Le tableau II ci-dessous résume les taux cérébraux de sérotonine, en pourcentage par rapport aux contrôles, après administration orale ou intrapéritonéale de quatre ingrédients actifs des compositions pharmaceutiques de la présente invention. La détermination des taux cérébraux, selon Curzon et Green (Brit. J. Pharmacol. 39, 653, 1970), a été effectuée une heure et/ou deux heures après l'administration. La fenfluramine a été utilisée comme produit de référence.

[4] = molecular target: récepteurs post-synaptiques de la sérotonine; test: 3H-serotonin binding to rat cortex membranes (Peroutka and Snyder method); conditions: fixed concentration of 3H-serotonin
Description: L'affinité des composés de la présente invention pour les récepteurs post-synaptiques de la' sérotonine a été déterminée selon la méthode de Peroutka et Snyder (Molec. Pharmacol. 1979, 16, 687-699) qui consiste à incuber des membranes de cortex de rat avec une concentration fixée de ^3H-sérotonine en présence de différentes concentrations de produit. Le tableau III montre la concentration molare de trois ingrédients actifs représentatifs de la présente invention qui donne une inhibition de 50% du binding spécifique au récepteur sérotoninergique (IC50), à savoir la mesure de la capacité du produit d'intéragir avec la ^3H-sérotonine dans le binding à son récepteur. La fenfluramine et la 3-(3-trifluorométhylphényl)-1-propyl-1,2,5,6-tétrahydropyridine (Composé A), décrite par le brevet allemand 2 904 826, ont été utilisées comme composés de référence.

| SMILES | LD50 ([1]; ip) [mg/kg] | LD50 ([1]; po, os) [mg/kg] | A/B (index thérapeutique lié à la toxicité aiguë) ([2]; i.p.) | ED50 ([2]; ip, i.p.) [mg/kg] | A/B (index thérapeutique lié à la toxicité aiguë) ([2]; os) | ED50 ([2]; po, os) [mg/kg] | taux cérébraux de sérotonine % par rapport aux contrôles ([3]; i.p., 15 mg/kg, 1 h.) | taux cérébraux de sérotonine % par rapport aux contrôles ([3]; i.p., 15 mg/kg, 2 h.) | taux cérébraux de sérotonine % par rapport aux contrôles ([3]; i.p., 7,5 mg/kg, 2 h.) | taux cérébraux de sérotonine % par rapport aux contrôles ([3]; i.p., 30 mg/kg, 2 h.) | IC50 [4] [µM] | taux cérébraux de sérotonine (result in words) ([3]; at anorectic doses) | taux cérébraux de sérotonine % par rapport aux contrôles ([3]; i.p., 5,0 mg/kg, 1 h.) | taux cérébraux de sérotonine % par rapport aux contrôles ([3]; i.p., 7,5 mg/kg, 1 h.) | taux cérébraux de sérotonine % par rapport aux contrôles ([3]; os, 15 mg/kg, 2 h.) | taux cérébraux de sérotonine % par rapport aux contrôles ([3]; os, 7,5 mg/kg, 2 h.) |
| --- | --- | --- | --- | --- | --- | --- | --- | --- | --- | --- | --- | --- | --- | --- | --- | --- |
| FC(F)(F)c1cccc(C2=CCNCC2)c1 [CM 57235, chlorhydratede 4-(3-triflüorométhylphényl)-1,2,3,6-tétrahydropyridine] | 94.6 | 346 | 11,2 | 8.4 | 22 | 15.7 | 106% | 102% | 112,0% |  |  |  |  |  |  |  |
| FC(F)(F)c1cccc(C2=CCN(Cc3ccccc3)CC2)c1 [CM 57451, chlorhydratede 4-(3-trifluorométhylphényl)-1-benzyl-1,2,3,6-tétrahydropyridine] | 220 | 600 | 14,6 | 15 | 33,3 | 18 | 121,2% | 112,0% |  | 119,0% |  |  |  |  |  |  |
| CCCN1CC=C(c2cccc(C(F)(F)F)c2)CC1 [CM 57545, chlorhydratede 4-(3-trifluorométhylphényl)-1-propyl-1,2,3,6-tétrahydropyridine] | 124 | 178 | 17,7 | 7 | 22,2 | 8 |  | 112% | 103% |  |  |  |  |  |  |  |
| CN1CC=C(c2cccc(C(F)(F)F)c2)CC1 [CM 57548, chlorhydratede 4-(3-trifluorométhylphényl)-1-méthyl-1,2,3,6-tétrahydropyridine] | 186 |  | 15,2 | 12.2 |  |  |  |  |  |  |  |  |  |  |  |  |
| CCNC(C)Cc1cccc(C(F)(F)F)c1 (stereo not drawn) [fenfluramine, reference compound] | 85.6 | 100 | 15,8 | 5.4 | 25,1 | 4 |  |  | 53,1 ** % |  | > 10 | réduction importante de sérotonine cérébrale | 82,9 * % | 81,6 * % |  |  |
| CCCCCN1CC=C(c2cccc(C(F)(F)F)c2)CC1 [CM 57756, chlorhydratede 4-(3-trifluorométhylphényl)-1-n-pentyl-1,2,3,6-tétrahydropyridine] |  | 311 |  |  | 35,4 | 8.8 |  |  |  |  |  |  |  |  | 125 * % | 138 ** % |
